“And” between values parts separate entries of the source, which are not always exact repeats. Identical values can stand only once. Inconclusive results and toxic doses are left out. Cut-off read from the data, not from the text of the source: active = T/C of 150% or more; inactive = T/C below 125%.
System: L1210 leukemia ip in BDF1 mice, survival T/C
Test: NCI In Vivo Anticancer Drug Screen. Data for tumor model L1210 Leukemia (intraperitoneal) in B6D2F1 (BDF1) mice
Details: endpoint: mean survival time, higher = longer survival
Method in brief: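 Mice bearing the transplanted tumor received compound or vehicle. Survival of the treated group was divided by that of the vehicle-treated control group to give the ratio.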

[1] = dose: 100.0 mg/kg/injection, schedule: Q04DX003 (ip), vehicle: saline with Tween-80
[2] = dose: 200.0 mg/kg/injection, schedule: Q04DX003 (ip), vehicle: saline with Tween-80
[3] = dose: 400.0 mg/kg/injection, schedule: Q04DX003 (ip), vehicle: saline with Tween-80
[4] = dose: 100.0 mg/kg/injection, schedule: Q01DX001 (ip), vehicle: saline
[5] = dose: 200.0 mg/kg/injection, schedule: Q01DX001 (ip), vehicle: saline
[6] = dose: 400.0 mg/kg/injection, schedule: Q01DX001 (ip), vehicle: saline
[7] = dose: 100.0 mg/kg/injection, schedule: Q01DX009 (ip), vehicle: Klucel (hydroxypropylcellulose) (HPC)
[8] = dose: 200.0 mg/kg/injection, schedule: Q01DX009 (ip), vehicle: Klucel (hydroxypropylcellulose) (HPC)
[9] = dose: 100.0 mg/kg/injection, schedule: Q01DX009 (ip), vehicle: saline
[10] = dose: 100.0 mg/kg/injection, schedule: Q04DX003 (ip), vehicle: saline
[11] = dose: 200.0 mg/kg/injection, schedule: Q01DX009 (ip), vehicle: saline
[12] = dose: 200.0 mg/kg/injection, schedule: Q04DX003 (ip), vehicle: saline
[13] = dose: 400.0 mg/kg/injection, schedule: Q01DX009 (ip), vehicle: saline
[14] = dose: 400.0 mg/kg/injection, schedule: Q04DX003 (ip), vehicle: saline

Measured: T/C

Cc1ccccc1N(C=O)c1ccccc1C
inactive: dose: 50.0 mg/kg/injection, schedule: Q01DX Z (ip), vehicle: methylcellulose (MC) 111 % of control | dose: 80.0 mg/kg/injection, schedule: Q01DX Z (ip), vehicle: methylcellulose (MC) 115 % of control | dose: 125.0 mg/kg/injection, schedule: Q01DX Z (ip), vehicle: methylcellulose (MC) 98 % of control and 114 % of control | dose: 180.0 mg/kg/injection, schedule: Q01DX Z (ip), vehicle: methylcellulose (MC) 115 % of control | dose: 240.0 mg/kg/injection, schedule: Q01DX Z (ip), vehicle: methylcellulose (MC) 97 % of control | dose: 250.0 mg/kg/injection, schedule: Q01DX Z (ip), vehicle: methylcellulose (MC) 93 % of control | dose: 300.0 mg/kg/injection, schedule: Q01DX Z (ip), vehicle: methylcellulose (MC) 109 % of control | dose: 360.0 mg/kg/injection, schedule: Q01DX Z (ip), vehicle: methylcellulose (MC) 100 % of control | dose: 500.0 mg/kg/injection, schedule: Q01DX Z (ip), vehicle: methylcellulose (MC) 106 % of control | dose: 1000.0 mg/kg/injection, schedule: Q01DX Z (ip), vehicle: methylcellulose (MC) 98 % of control

Nc1ccc(S(=O)(=O)CC(=O)N2CCOCC2)cc1
inactive: [1] 100 % of control | [2] 97 % of control | [3] 97 % of control

C=CCOC(=O)C(=O)OCC=C
inactive: dose: 100.0 mg/kg/injection, schedule: Q01DX009 (ip), vehicle: saline with Tween-80 95 % of control

Nc1ccc(Cc2nc3ccccc3[nH]2)cc1
inactive: [4] 102 % of control | [5] 96 % of control | [6] 98 % of control

O=C(NCCCNC(=O)Nc1cccc(C2=NCCCN2)c1)Nc1cccc(C2=NCCCN2)c1
inactive: dose: 0.5 mg/kg/injection, schedule: Q01DX Z (ip), vehicle: carboxymethylcellulose (CMC) 104 % of control | dose: 1.0 mg/kg/injection, schedule: Q01DX Z (ip), vehicle: carboxymethylcellulose (CMC) 106 % of control | dose: 2.0 mg/kg/injection, schedule: Q01DX Z (ip), vehicle: carboxymethylcellulose (CMC) 96 % of control

Cc1ccc(N(N)c2ccc(C)cc2)cc1
inactive: [7] 98 % of control | dose: 100.0 mg/kg/injection, schedule: Q04DX003 (ip), vehicle: Klucel (hydroxypropylcellulose) (HPC) 100 % of control | [8] 98 % of control | dose: 200.0 mg/kg/injection, schedule: Q04DX003 (ip), vehicle: Klucel (hydroxypropylcellulose) (HPC) 97 % of control | dose: 400.0 mg/kg/injection, schedule: Q04DX003 (ip), vehicle: Klucel (hydroxypropylcellulose) (HPC) 100 % of control

Nc1ncnc(N)c1NC(=O)c1cccc(-c2ccccc2)c1
inactive: dose: 100.0 mg/kg/injection, schedule: Q01DX001 (ip), vehicle: saline with Tween-80 97 % of control | dose: 200.0 mg/kg/injection, schedule: Q01DX001 (ip), vehicle: saline with Tween-80 101 % of control | dose: 400.0 mg/kg/injection, schedule: Q01DX001 (ip), vehicle: saline with Tween-80 90 % of control

COC(=O)c1cc(C)cc(O)c1C
inactive: dose: 100.0 mg/kg/injection, schedule: Q01DX001 (ip), vehicle: carboxymethylcellulose (CMC) 104 % of control | dose: 200.0 mg/kg/injection, schedule: Q01DX001 (ip), vehicle: carboxymethylcellulose (CMC) 98 % of control | dose: 400.0 mg/kg/injection, schedule: Q01DX001 (ip), vehicle: carboxymethylcellulose (CMC) 104 % of control

CCCCN(CCCC)C(=N)c1c(C)cc(C)cc1C
inactive: dose: 2.5 mg/kg/injection, schedule: Q01DX001 (ip), vehicle: saline 101 % of control | dose: 5.0 mg/kg/injection, schedule: Q01DX001 (ip), vehicle: saline 105 % of control and 106 % of control and 108 % of control | dose: 7.0 mg/kg/injection, schedule: Q01DX001 (ip), vehicle: saline 94 % of control and 104 % of control | dose: 10.0 mg/kg/injection, schedule: Q01DX001 (ip), vehicle: saline 98 % of control and 101 % of control and 110 % of control | dose: 15.0 mg/kg/injection, schedule: Q01DX001 (ip), vehicle: saline 102 % of control and 104 % of control

COc1c2c(cc3c1OCO3)C13CCN(C2)C1CC(OC)C1OC13 (centres undefined)
inactive: dose: 5.0 mg/kg/injection, schedule: Q01DX001 (ip), vehicle: other 97 % of control | dose: 10.0 mg/kg/injection, schedule: Q01DX001 (ip), vehicle: other 109 % of control | dose: 20.0 mg/kg/injection, schedule: Q01DX001 (ip), vehicle: other 97 % of control | dose: 40.0 mg/kg/injection, schedule: Q01DX001 (ip), vehicle: other 90 % of control | dose: 80.0 mg/kg/injection, schedule: Q01DX001 (ip), vehicle: other 89 % of control

O=S(=O)(OCC1C2CCC1CC2)c1ccccc1 (centres undefined)
inactive: dose: 100.0 mg/kg/injection, schedule: Q01DX009 (ip), vehicle: other 92 % of control | dose: 100.0 mg/kg/injection, schedule: Q04DX003 (ip), vehicle: other 104 % of control | dose: 200.0 mg/kg/injection, schedule: Q01DX009 (ip), vehicle: other 94 % of control | dose: 200.0 mg/kg/injection, schedule: Q04DX003 (ip), vehicle: other 94 % of control | dose: 400.0 mg/kg/injection, schedule: Q01DX009 (ip), vehicle: other 101 % of control | dose: 400.0 mg/kg/injection, schedule: Q04DX003 (ip), vehicle: other 89 % of control

CC(C)CC(NC(=O)C1(N)C2CC3CC(C2)CC1C3)C(=O)O (centres undefined)
inactive: dose: 22.5 mg/kg/injection, schedule: Q01DX009 (ip), vehicle: Klucel (hydroxypropylcellulose) (HPC) 100 % of control | dose: 45.0 mg/kg/injection, schedule: Q01DX009 (ip), vehicle: Klucel (hydroxypropylcellulose) (HPC) 103 % of control | dose: 90.0 mg/kg/injection, schedule: Q01DX009 (ip), vehicle: Klucel (hydroxypropylcellulose) (HPC) 97 % of control | [7] 108 % of control | [8] 107 % of control | dose: 400.0 mg/kg/injection, schedule: Q01DX009 (ip), vehicle: Klucel (hydroxypropylcellulose) (HPC) 100 % of control

c1ccc(C2(C3(c4ccccc4)SCCCS3)CN2)cc1 (centres undefined)
inactive: dose: 100.0 mg/kg/injection, schedule: Q01DX001 (ip), vehicle: Klucel (hydroxypropylcellulose) (HPC) 101 % of control | dose: 200.0 mg/kg/injection, schedule: Q01DX001 (ip), vehicle: Klucel (hydroxypropylcellulose) (HPC) 97 % of control

CCc1ccc(NC(C)=O)cc1
inactive: [1] 105 % of control | [2] 94 % of control | [3] 102 % of control

Cc1cc([N+](=O)[O-])c(C)c([N+](=O)[O-])c1Cl
inactive: dose: 100.0 mg/kg/injection, schedule: Q01DX001 (ip), vehicle: acetone 101 % of control | [9] 90 % of control | [10] 95 % of control | dose: 200.0 mg/kg/injection, schedule: Q01DX001 (ip), vehicle: acetone 97 % of control | [11] 95 % of control | [12] 103 % of control | dose: 400.0 mg/kg/injection, schedule: Q01DX001 (ip), vehicle: acetone 95 % of control | [13] 88 % of control | [14] 98 % of control

NNc1cccc(C(F)(F)F)c1
inactive: dose: 25.0 mg/kg/injection, schedule: Q01DX009 (ip), vehicle: saline with Tween-80 94 % of control | dose: 25.0 mg/kg/injection, schedule: Q04DX003 (ip), vehicle: saline with Tween-80 100 % of control | dose: 50.0 mg/kg/injection, schedule: Q01DX009 (ip), vehicle: saline with Tween-80 96 % of control | dose: 50.0 mg/kg/injection, schedule: Q04DX003 (ip), vehicle: saline with Tween-80 95 % of control | [1] 95 % of control and 98 % of control

CC(=O)NC(C)C(=O)O (centres undefined)
inactive: [4] 90 % of control and 92 % of control | [9] 100 % of control and 111 % of control and 103 % of control | dose: 100.0 mg/kg/injection, schedule: Q04DX002 (ip), vehicle: saline 96 % of control and 111 % of control and 92 % of control | [10] 89 % of control and 103 % of control | [5] 106 % of control and 93 % of control | [11] 93 % of control and 92 % of control and 97 % of control | dose: 200.0 mg/kg/injection, schedule: Q04DX002 (ip), vehicle: saline 105 % of control and 93 % of control and 94 % of control | [12] 90 % of control and 98 % of control | [6] 94 % of control and 93 % of control | [13] 90 % of control and 92 % of control and 100 % of control | dose: 400.0 mg/kg/injection, schedule: Q04DX002 (ip), vehicle: saline 96 % of control and 94 % of control and 101 % of control | [14] 94 % of control and 103 % of control
